From US7326732B2, “EP2 receptor agonists” (Pharmagene Laboratories Limited, priority 2004, dated 2008)

Legend:
human EP2 receptor = biological target: T1, human EP2 receptor (Homo sapiens, UniProt P43116); experiment: Binding ability to human EP receptors ([3H]PGE2 displacement), EP2; conditions: membranes expressing human EP2; [3H]PGE2 3 nM; Cheng-Prusoff; read-out: pKi (M) EP2 (converted)
T1 construct: expressed in transfected cells
Description: (§1) Membranes were prepared from cells stably transfected with human EP receptor cDNA. In brief, cells were cultured to confluency, scraped from culture flasks, and centrifuged (800 g, 8 minutes, 4° C.). Cells were twice washed in ice cold homogenisation buffer containing 10 mMTris-HCl, 1 mM EDTA.2Na, 250 mM sucrose, 1 mM PMSF, 0.3 mM indomethacin, pH 7.4, homogenised and re-centrifuged as before. The supernatant was stored on ice and pellets re-homogenised and re-spun. Supernatants were pooled and centrifuged at 40000 g, 10 minutes, 4° C. Resultant membrane pellets were stored at −80° C. until use. For assay, membranes expressing human EP4, EP3, EP2 or EP1 receptors were incubated in Millipore (MHVBN45) plates containing assay buffer, radiolabelled [^3H]PGE2 and 0.1 to 10 000 nM concentrations of compounds. Incubations were performed at suitable temperatures and for suitable times to allow equilibrium to be reached. Non-specific binding was determined in the presence of 10 uM PGE2. Bound and free radiolabel was separated by vacuum manifold filtration using appropriate wash buffers, and bound radiolabel was determined by scintillation counting. Constituents of each of the buffers are included in table 1 below. […] Raven Press, New York, 2nd edition.

human EP4 receptor = biological target: T2, human EP4 receptor (Homo sapiens, UniProt P35408); experiment: Binding ability to human EP receptors ([3H]PGE2 displacement), EP4; conditions: membranes expressing human EP4; [3H]PGE2 1 nM; Cheng-Prusoff; read-out: pKi (M) EP4 (converted)
T2 construct: expressed in transfected cells
Description: as §1

human EP3 receptor = biological target: T3, human EP3 receptor (Homo sapiens, UniProt P43115); experiment: Binding ability to human EP receptors ([3H]PGE2 displacement), EP3; conditions: membranes expressing human EP3; [3H]PGE2 2.5 nM; Cheng-Prusoff; read-out: pKi (M) EP3 (converted)
T3 construct: expressed in transfected cells
T3 sequence (P43115 1-390): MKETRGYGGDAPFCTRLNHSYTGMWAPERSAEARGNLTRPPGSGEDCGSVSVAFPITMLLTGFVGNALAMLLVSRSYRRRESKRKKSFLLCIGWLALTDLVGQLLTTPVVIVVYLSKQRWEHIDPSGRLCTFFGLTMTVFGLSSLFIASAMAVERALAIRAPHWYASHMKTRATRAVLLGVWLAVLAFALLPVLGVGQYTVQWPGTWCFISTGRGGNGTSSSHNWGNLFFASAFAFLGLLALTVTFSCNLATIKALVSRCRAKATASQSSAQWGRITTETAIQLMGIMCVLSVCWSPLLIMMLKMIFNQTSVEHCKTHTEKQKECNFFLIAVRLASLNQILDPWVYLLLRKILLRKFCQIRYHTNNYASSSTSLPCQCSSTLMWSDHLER
Description: as §1

[1] = biological target: T4, human EP2 prostanoid receptors (Homo sapiens, UniProt P43116); experiment: Agonist activity at recombinant human EP2 prostanoid receptors (cAMP in HEK-293 clones); format: cell-based
T4 construct: expressed in transfected cells; host or cells: HEK-293
Description: Culture media was Minimal essential media (MEM), supplemented with 10% foetal bovine serum, 100 U/ml penicillin, […] streptomycin, 2.5 μg/ml fungizone, 2mM glutamine. Cells were cultured to confluency (3-4 days) prior to use. Culture media was removed, and confluent cells washed three times in MEM. […] Cells were then stimulated by the addition of 25 μl of PGE2 or agonists prepared in assay buffer. In antagonist studies, cells were pre-incubated with compounds for 30 minutes prior to PGE2-mediated stimulation Plates were incubated for 15 min at 37° C., before termination of the reaction by the addition of 25 μl 1M HCl. The plate was then frozen at -20° C. overnight before determination of cAMP concentration. Stimulated cAMP levels were determined by radioligand displacement binding. In brief, plates were thawed rapidly in a waterbath, and the samples neutralised by the addition of 25 μl 1M NaOH. 30 μl was transferred to Millipore plates pre-coated with 0.5% Polyethylenimine (PEI). Samples were diluted by addition of 90 μl cAMP determination buffer (50 mM Tris, 5 mM EDTA, pH 7.0). […] 15 μl of 2 nM (final concentration) [^3H] cAMP, and 15 μl of 3'5'-cAMP protein kinase (8 μg/well final concentration) prepared in cAMP determination buffer containing 0.1% BSA, were added to each well. Plates were incubated on ice for 2 hours, before bound and free radiolabel were separated by vacuum filtration harvesting using the Millipore vacuum manifold, using ice cold water as the termination buffer. The sealing mat was removed from the Millipore plates, and the filters allowed to dry overnight. 50 μl Microscint 0 (Packard Bioscience) was added to each well, and the plate counted using the Micro-Beta Trilux topcount ^3H program. cAMP accumulation was determined from the standard curve, and values calculated in pmoles cAMP/well. Antagonists affinities (pA2 values) were determined assuming a slope of unity and the […]-Schild equation, where pA2=log [concentration ratio-1]-log[antagonist].

T1 sequence (P43116 whole entry): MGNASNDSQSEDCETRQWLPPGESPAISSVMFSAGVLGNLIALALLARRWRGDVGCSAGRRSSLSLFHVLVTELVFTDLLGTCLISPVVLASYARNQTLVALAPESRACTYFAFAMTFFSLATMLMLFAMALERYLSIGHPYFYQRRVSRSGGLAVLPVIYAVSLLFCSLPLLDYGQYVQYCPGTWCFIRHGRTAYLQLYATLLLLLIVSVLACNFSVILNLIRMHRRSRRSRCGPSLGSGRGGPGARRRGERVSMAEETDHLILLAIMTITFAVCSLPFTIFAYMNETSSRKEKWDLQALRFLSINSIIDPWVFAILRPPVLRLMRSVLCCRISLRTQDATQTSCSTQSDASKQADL
T2 sequence (P35408 whole entry): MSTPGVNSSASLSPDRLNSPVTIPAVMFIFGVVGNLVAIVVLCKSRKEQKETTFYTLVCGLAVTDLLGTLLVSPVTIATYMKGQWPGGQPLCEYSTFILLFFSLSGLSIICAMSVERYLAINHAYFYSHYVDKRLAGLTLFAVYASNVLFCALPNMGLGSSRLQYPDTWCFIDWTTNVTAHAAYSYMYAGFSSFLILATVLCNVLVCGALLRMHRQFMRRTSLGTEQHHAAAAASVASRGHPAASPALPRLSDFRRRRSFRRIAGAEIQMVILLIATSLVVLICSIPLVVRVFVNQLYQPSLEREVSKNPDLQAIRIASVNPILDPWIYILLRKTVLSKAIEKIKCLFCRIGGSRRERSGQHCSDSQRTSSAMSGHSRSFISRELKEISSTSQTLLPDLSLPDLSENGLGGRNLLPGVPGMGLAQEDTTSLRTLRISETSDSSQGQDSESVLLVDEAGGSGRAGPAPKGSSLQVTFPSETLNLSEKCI
T4 sequence (P43116 whole entry): as the sequence (P43116 whole entry) above

Compound | Ki (human EP2 receptor) [M] | Ki (human EP4 receptor) [M] | Ki (human EP3 receptor) [M] | EC50 ([1]; HEK-293 stably transfected with human EP2, cAMP accumulation, read-out: pEC50 EP2 (converted)) [µM] | activity (EP2 part) ([1]; functional classification at EP2)
Cc1ccc(-c2ccc(C(=O)Nc3cccc(CC(=O)O)c3)o2)cc1 [Compound 22, (3-{[5-(4-Methyl-phenyl)-furan-2-carbonyl]-amino}-phenyl)-acetic acid] | < 1e-05 | > 1e-05 | > 1e-05 |  | 
O=C(O)Cc1cccc(NC(=O)c2ccc(-c3ccccc3C(F)(F)F)o2)c1 [Compound 23, (3-{[5-(2-Trifluoromethyl-phenyl)-furan-2-carbonyl]-amino}-phenyl)-acetic acid] | < 1e-05 | > 1e-05 | > 1e-05 |  | 
O=C(O)Cc1cccc(NC(=O)c2ccc(-c3cccc(C(F)(F)F)c3)o2)c1 [Compound 24, (3-{[5-(3-Trifluoromethyl-phenyl)-furan-2-carbonyl]-amino}-phenyl)-acetic acid] | < 1e-06 | > 1e-05 | > 1e-05 |  | 
O=C(O)Cc1cccc(NC(=O)c2ccc(-c3ccc(Cl)cc3Cl)o2)c1 [Compound 25, (3-{[5-(2,4-Dichloro-phenyl)-furan-2-carbonyl]-amino}-phenyl)-acetic acid] | < 1e-05 | > 1e-05 | > 1e-05 |  | 
Cc1ccccc1-c1ccc(C(=O)Nc2cccc(CC(=O)O)c2)o1 [Compound 28, (3-{[5-(2-Methyl-phenyl)-furan-2-carbonyl]-amino}-phenyl)-acetic acid] | < 1e-06 | > 1e-05 | > 1e-05 |  | 
O=C(O)Cc1cccc(NC(=O)c2ccc(-c3cccc(OC(F)(F)F)c3)o2)c1 [Compound 32, (3-{[5-(3-Trifluoromethoxy-phenyl)-furan-2-carbonyl]-amino}-phenyl)-acetic acid] | < 1e-06 | < 1e-05 | > 1e-05 |  | 
O=C(O)Cc1cccc(NC(=O)c2ccc(-c3ccc(OC(F)(F)F)cc3)o2)c1 [Compound 33, (3-{[5-(4-Trifluoromethoxy-phenyl)-furan-2-carbonyl]-amino}-phenyl)-acetic acid] | < 1e-05 | > 1e-05 | > 1e-05 |  | 
CC(C)c1ccc(-c2ccc(C(=O)Nc3cccc(CC(=O)O)c3)o2)cc1 [Compound 35, (3-{[5-(4-Isopropyl-phenyl)-furan-2-carbonyl]-amino}-phenyl)-acetic acid] | < 1e-05 | > 1e-05 | > 1e-05 |  | 
O=C(O)Cc1cccc(NC(=O)c2ccc(-c3ccco3)o2)c1 [Compound 38, {3-[([2,2′]Bifuranyl-5-carbonyl)-amino]-phenyl}-acetic acid] | < 1e-05 | > 1e-05 | > 1e-05 |  | 
O=C(O)Cc1cccc(NC(=O)c2ccc(-c3ccccc3)s2)c1 [Compound 43, {3-[(5-Phenyl-thiophene-2-carbonyl)-amino]-phenyl}-acetic acid] | < 1e-05 | > 1e-05 | > 1e-05 |  | 
O=C(O)Cc1cccc(NC(=O)c2ccc(F)c(-c3ccccc3)c2)c1 [Compound 46, {3-[(6-Fluoro-biphenyl-3-carbonyl)-amino]-phenyl}-acetic acid] | < 1e-05 | > 1e-05 | > 1e-05 |  | 
Cc1cc(-c2ccccc2)ccc1C(=O)Nc1cccc(CC(=O)O)c1 [Compound 47, {3-[(3-Methyl-biphenyl-4-carbonyl)-amino]-phenyl}-acetic acid] | < 1e-06 | > 1e-05 | > 1e-05 |  | 
O=C(O)Cc1cccc(NC(=O)c2ccc(-c3ccccc3)cc2Cl)c1 [Compound 48, {3-[(3-Chloro-biphenyl-4-carbonyl)-amino]-phenyl}-acetic acid] | < 1e-05 | > 1e-05 | > 1e-05 |  | 
Cc1cc(C(=O)Nc2cccc(CC(=O)O)c2)sc1-c1ccccc1 [Compound 50, {3-[(4-Methyl-5-phenyl-thiophene-2-carbonyl)-amino]-phenyl}-acetic acid] | < 1e-05 | > 1e-05 | > 1e-05 |  | 
O=C(O)Cc1cccc(NC(=O)c2cnc(-c3ccccc3)[nH]2)c1 [Compound 53, {3-[(2-Phenyl-1H-imidazole-5-carbonyl)-amino]-phenyl}-acetic acid] | < 1e-05 | > 1e-05 | > 1e-05 |  | 
O=C(O)c1cc2cc(NC(=O)c3ccc(-c4ccccc4)o3)ccc2[nH]1 [Compound 59, 5-[(5-Phenyl-furan-2-carbonyl)-amino]-1H-indole-2-carboxylic acid] | < 1e-05 | > 1e-05 | > 1e-05 |  | 
O=C(O)c1ccc2cc(NC(=O)c3ccc(-c4ccccc4)o3)ccc2c1 [Compound 63, 6-[(5-Phenyl-furan-2-carbonyl)-amino]-naphthalene-2-carboxylic acid] | < 1e-05 | > 1e-05 | > 1e-05 |  | 
NC(=O)Cc1cccc(NC(=O)c2ccc(-c3ccccc3)o2)c1 [Compound 73, 5-Phenyl-furan-2-carboxylic acid (3-carbamoylmethyl-phenyl)-amide] | < 1e-05 | > 1e-05 | > 1e-05 |  | 
O=C(Nc1cccc(Cc2nnn[nH]2)c1)c1ccc(-c2ccccc2)o1 [Compound 75, 5-Phenyl-furan-2-carboxylic acid [3-(1H-tetrazol-5-ylmethyl)-phenyl]-amide] | < 1e-07 | > 1e-05 | > 1e-05 |  | 
O=C(Nc1cccc(Cc2nnn[nH]2)c1)c1ccc(-c2cccc(F)c2)o1 [Compound 86, 5-(3-Fluoro-phenyl)-furan-2-carboxylic acid [3-(1H-tetrazol-5-ylmethyl)-phenyl]-amide] | < 1e-07 | > 1e-05 |  | < 0.1 | EP2 Agonist
O=C(O)c1cc2cc(NC(=O)c3ccc(-c4ccccc4)o3)ccc2o1 [Compound 96, 5-[(5-Phenyl-furan-2-carbonyl)-amino]-benzofuran-2-carboxylic acid] | < 1e-06 | > 1e-05 | > 1e-05 |  | 
O=C(O)/C=C/c1cccc(NC(=O)c2ccc(-c3cc(C(F)(F)F)cc(C(F)(F)F)c3)o2)c1 [Compound 102, 3-(3-{[5-(3,5-Bis-trifluoromethyl-phenyl)-furan-2-carbonyl]-amino}phenyl)-acrylic acid] | < 1e-07 | > 1e-05 | > 1e-05 |  | 
O=C(O)/C=C/c1cccc(NC(=O)c2ccc(-c3cccc(-c4ccccc4)c3)o2)c1 [Compound 103, 3-{3-[(5-Biphenyl-3-yl-furan-2-carbonyl)-amino]-phenyl}-acrylic acid] | < 1e-07 | < 1e-06 | > 1e-05 |  | 
O=C(O)/C=C/c1cccc(NC(=O)c2ccc(-c3cccc(OCc4ccccc4)c3)o2)c1 [Compound 104, 3-(3-{[5-(3-Benzyloxy-phenyl)-furan-2-carbonyl]-amino}-phenyl)-acrylic acid] | < 1e-07 | > 1e-05 | > 1e-05 |  | 
O=C(O)/C=C/c1cccc(NC(=O)c2ccc(-c3ccc(-c4ccccc4)c(F)c3)o2)c1 [Compound 105, 3-(3-{[5-(2-Fluoro-biphenyl-4-yl)-furan-2-carbonyl]-amino}-phenyl)-acrylic acid] | < 1e-06 | > 1e-05 | > 1e-05 |  | 
